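Step 1: Grow cells in 96-well plates. Step 2: Expose to compound for 48 hours at 5 concentrations. Step 3: Interpolate endpoints linearly; if unreached, use highest concentration. TGI is the concentration that stops growth completely.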
Legend:
Assay in all cases: NCI tumour cell line growth inhibition, 48 h
[1] = test system: KM20L2 colon
[2] = test system: XF 498 CNS
[3] = test system: HOP-18 NSCLC
[4] = test system: RXF-631 renal
[5] = test system: M19-MEL melanoma
[6] = test system: DLD-1 colon
[7] = test system: DMS 114 small cell lung
[8] = test system: SN12K1 renal
[9] = test system: P388 leukemia
[10] = test system: P388/ADR leukemia

c1ccc(N=c2nc(N3CCOCC3)ss2)cc1
TGI [1]: 31.4 µM
TGI [2]: 32.1 µM
TGI [3]: > 100 µM
TGI [4]: 31.7 µM
TGI [5]: 32 µM
TGI [6]: 28.3 µM
TGI [7]: 30.2 µM

CC(=O)OCC1=C(C(=O)O)C(c2ccc3c(c2)OCO3)c2cc3c(cc2O1)OCO3 (stereo unspecified)
TGI [1]: > 100 µM
TGI [2]: > 100 µM
TGI [3]: > 100 µM
TGI [4]: > 100 µM
TGI [5]: > 100 µM
TGI [6]: > 100 µM
TGI [7]: > 100 µM

NC1(C(=O)O)CCc2ccc(N(CCCl)CCCl)cc2C1 (stereo unspecified)
TGI [1]: > 100 µM
TGI [8]: > 100 µM
TGI [2]: > 100 µM
TGI [3]: > 100 µM
TGI [5]: > 100 µM
TGI [6]: > 100 µM
TGI [9]: 7.27 µM
TGI [10]: 35.1 µM
TGI [7]: > 100 µM

CCOc1ccc(/C(C=O)=C(\Cl)c2ccc(OC)c(OC)c2)cc1
TGI [1]: > 100 µM
TGI [2]: 79.2 µM
TGI [3]: > 100 µM
TGI [4]: > 100 µM
TGI [5]: > 100 µM
TGI [6]: > 100 µM
TGI [7]: > 100 µM

Cc1cc2c(C(C)C)c(O)c(O)c(C=NCCO)c2c(O)c1-c1c(C)cc2c(C(C)C)c(O)c(O)c(C=NCCO)c2c1O
TGI [2]: 8.43 µM
TGI [3]: 5.37 µM
TGI [4]: 5.35 µM
TGI [5]: 3.62 µM
TGI [6]: 11.7 µM
TGI [7]: 2.7 µM

C=C1C(=O)O[C@@H]2[C@H]1CCC(C)=C1C=CC(=O)[C@]12C
TGI [3]: 29.7 µM
TGI [4]: 23.6 µM
TGI [6]: 32.8 µM
TGI [7]: 29.8 µM

O=C(Nc1c(C(=O)NC2CCCCC2)[nH]c(=O)[nH]c1=O)c1ccc(Cl)cc1
TGI [2]: > 100 µM
TGI [3]: > 100 µM
TGI [5]: > 100 µM
TGI [6]: > 100 µM
TGI [7]: > 100 µM

CCCC(N)C(=O)c1ccccc1 (stereo unspecified)
TGI [1]: > 100 µM
TGI [2]: > 100 µM
TGI [3]: > 100 µM
TGI [6]: > 100 µM
TGI [7]: > 100 µM

O=C(Nc1ccc(Sc2ccc(N=Nc3c(O)c(S(=O)(=O)O)cc4cc(S(=O)(=O)O)ccc34)cc2)cc1)c1ccc(N=Nc2c(O)ccc3c(S(=O)(=O)O)cc(S(=O)(=O)O)cc23)cc1
TGI [1]: > 100 µM
TGI [2]: 91.7 µM
TGI [3]: > 100 µM
TGI [4]: > 100 µM
TGI [5]: 68.6 µM
TGI [6]: > 100 µM

CC(=O)O[C@H]1C=CC(=O)C(C)CC1C (stereo partly specified)
TGI [1]: > 100 µM
TGI [2]: > 100 µM
TGI [4]: > 100 µM
TGI [5]: > 100 µM
TGI [6]: > 100 µM
TGI [7]: > 100 µM

O=C(O)C1CCC(=O)N1S(=O)(=O)c1ccccc1 (stereo unspecified)
TGI [1]: > 100 µM
TGI [8]: > 100 µM
TGI [2]: > 100 µM
TGI [3]: > 100 µM
TGI [5]: > 100 µM
TGI [6]: > 100 µM
TGI [9]: > 100 µM
TGI [10]: > 100 µM
TGI [7]: > 100 µM

Reference: PubChem BioAssay (NCI)
